Measurements as given in ChEMBL document CHEMBL5647693, “Molecular basis underlying resistance to Mps1/TTK inhibitors” (Oncogene, 2016).
pIC50: −log10 of the molar value.

Assays:
Test in all cases: cells
Type in all cases: functional, cell-based
HCT-116 [1] = conditions: Homo sapiens, HCT-116, 120 h
HCT-116 [2] = conditions: Homo sapiens, HCT-116, 120 h; remark: listed apart in the source
HeLa [3] = conditions: Homo sapiens, 120 h
HCT-116 [4] = conditions: Homo sapiens, HCT-116, 120 h; remark: listed apart in the source
U2OS = conditions: Homo sapiens, 120 h
DLD-1 [5] = conditions: Homo sapiens, DLD-1, 120 h
HeLa [6] = conditions: Homo sapiens, 120 h; remark: listed apart in the source
HeLa [7] = conditions: Homo sapiens, 120 h; remark: listed apart in the source
DLD-1 [8] = conditions: Homo sapiens, DLD-1, 120 h; remark: listed apart in the source
HCT-116 [9] = conditions: Homo sapiens, HCT-116, 120 h; remark: listed apart in the source
DLD-1 [10] = conditions: Homo sapiens, DLD-1, 120 h; remark: listed apart in the source
HeLa [11] = conditions: Homo sapiens, 120 h; remark: listed apart in the source

SMILES	pIC50 (HCT-116 [1])	pIC50 (HCT-116 [2])	pIC50 (HeLa [3])	pIC50 (HCT-116 [4])	pIC50 (U2OS)	pIC50 (DLD-1 [5])	pIC50 (HeLa [6])	pIC50 (HeLa [7])	pIC50 (DLD-1 [8])	pIC50 (HCT-116 [9])	pIC50 (DLD-1 [10])	pIC50 (HeLa [11])
c1nc2c(NC3CCCCC3)nc(Nc3ccc(N4CCOCC4)cc3)nc2[nH]1 [REVERSINE]	6.28	7.10	6.54	7.15	6.81	6.87	6.94	6.37	< 5.70	6.86	6.92	6.90
COc1cc(OC2CCN(C)CC2)ccc1Nc1ncc2c(n1)n(C1CCCC1)c(=O)n2C	5.51	–	5.87	< 5.30	–	6.14	< 5.30	5.41	< 5.30	6.25	–	5.56
COc1cc(N2CCC(O)CC2)ccc1Nc1nc(Nc2ccccc2S(=O)(=O)C(C)C)c2nc[nH]c2n1	5.49	–	5.47	5.27	–	5.62	5.05	5.32	5.10	5.79	–	5.17
